Measurements published in patent publication EP4707280A1, “1,4-CINEOLE DERIVATIVE AND INTERMEDIATE THEREOF, HERBICIDE CONTAINING SAID DERIVATIVE AS ACTIVE INGREDIENT, METHOD FOR USING HERBICIDE, AND METHOD FOR PREPARING AGROCHEMICAL COMPOSITION” (HOKKO CHEMICAL INDUSTRY CO., LTD., priority 2023, dated 2024).

How the values were obtained:
Format in all cases: in vivo
[1] = test system: Echinochloa crus-galli var. formosensis; assay: Test Example 1: herbicidal effect test by soil application in paddy rice; details: Echinochloa crus-galli, soil, 336 h; 120 g active ingredient per 10 ares; applied immediately after sowing, flooded pots; 14 days after application; read-out: weed inhibition rate
Description: Wagner pots with an area of […] were filled with paddy soil, followed by addition of water and incorporation of chemical fertilizer (N:P:K = 16:16:16), after which puddling was performed. After that, seeds of Echinochloa crus-galli var. formosensis, broad-leaved weeds ([…] Monochoria vaginalis), and Scirpus juncoides were sown at a depth of 0 cm to 1 cm, 30 seeds each. Immediately after sowing, the pots were flooded and a water depth of approximately 3 cm was maintained. Subsequent management was conducted in a glass greenhouse. Immediately thereafter, an emulsifiable concentrate prepared according to Formulation Example 5 using the compound shown below was diluted with water, and a specified amount of the diluted solution was applied by dropper. The amount of the active ingredient to be applied was equivalent to 120 g per 10 ares.

Echinochloa crus-galli [2] = assay: Test Example 3: herbicidal effect test by soil application in upland field; details: Echinochloa crus-galli, 120 g per 10 ares, sprayed one day after sowing, 14 days after application, read-out: weed inhibition rate
Description: (§1) The present test was conducted in duplicate for each chemical concentration group, and the weed inhibition rate (%) was determined 14 days after chemical application using the following formula (Math. 1). [formula]
(§2) Pots with an area of 36 cm^2 were filled with upland soil (alluvial loam), twenty seeds each of weeds of Digitaria ciliaris, Echinochloa crus-galli, Chenopodium album, and Amaranthus viridis were uniformly mixed with the top 1 cm layer of soil and the surface was lightly pressed down. One day after sowing, an emulsifiable concentrate prepared according to Formulation Example 5 using the compound shown below was diluted with water, and the diluted solution was sprayed onto the soil surface at a rate of 100 liters per 10 ares. The amount of the active ingredient to be applied was equivalent to 120 g per 10 ares. Fourteen days after chemical application, the herbicidal effect was evaluated according to the same criteria as in Test Example 1.

Digitaria ciliaris [3] = assay: as above; details: Digitaria ciliaris, 120 g per 10 ares, sprayed one day after sowing, 14 days after application, read-out: weed inhibition rate
Description: as §1, §2

Digitaria ciliaris [4] = assay: Test Example 4: herbicidal effect test by stem and leaf treatment in upland field; details: Digitaria ciliaris; 120 g per 10 ares; sprayed seven days after sowing, upland soil; 14 days after application; read-out: weed inhibition rate
Description: as §1
as §2, with “crus-galli,” for “crus-galli, Chenopodium album,”, “Seven days” for “One day”

[5] = test system: Echinochloa crus-galli var. formosensis; assay: Test Example 2: herbicidal effect test by application during growth period of paddy rice; details: Echinochloa crus-galli; 120 g per 10 ares; applied seven days after sowing, flooded pots; 14 days after application; read-out: weed inhibition rate
Description: as §1
Wagner pots with an area of […] were filled with paddy soil, followed by addition of water and incorporation of chemical fertilizer (N:P:K = 16:16:16), after which puddling was performed. After that, seeds of Echinochloa crus-galli var. formosensis, broad-leaved weeds (Monochoria vaginalis), and Scirpus juncoides were sown at a depth of 0 cm to 1 cm, 30 seeds each. Immediately after sowing, the pots were flooded and a water depth of approximately 3 cm was maintained. Subsequent management was conducted in a glass greenhouse. Seven days after sowing, an emulsifiable concentrate prepared according to Formulation Example 5 using the compound shown below was diluted with water, and a specified amount of the diluted solution was applied by dropper. The amount of the active ingredient to be applied was equivalent to 120 g per 10 ares. The test was conducted in duplicate for each chemical concentration group, and the herbicidal effect was evaluated 14 days after chemical application using the same criteria as in Test Example 1.

Echinochloa crus-galli [6] = assay: Test Example 4: herbicidal effect test by stem and leaf treatment in upland field; details: Echinochloa crus-galli; 120 g per 10 ares; sprayed seven days after sowing, upland soil; 14 days after application; read-out: weed inhibition rate

CC(C)[C@@]12C[C@H](OCc3c(Cl)cccc3Cl)[C@@](C)(C[C@H]1Br)O2 [1-1053, (1R,2S,4S,5R)-5-bromo-2-[(2,6-dichlorophenyl)methoxy]-1-methyl-4-isopropyl-7-oxabicyclo[2.2.1]heptane]
≥ 80%: pest or weed control at 1200 g/ha [1] | inhibition at 1200 g/ha (Echinochloa crus-galli [2]) | inhibition at 1200 g/ha (Digitaria ciliaris [3]) | inhibition at 1200 g/ha (Digitaria ciliaris [4]) | inhibition at 1200 g/ha [5] | inhibition at 1200 g/ha (Echinochloa crus-galli [6])

COC(=O)c1ccccc1COC1CC2(C(C)C)OC1(C)CC2Br (stereo not drawn) [1-1376, methyl 2-[(5-bromo-1-methyl-4-isopropyl-7-oxabicyclo[2.2.1]heptan-2-yl)oxymethyl]benzoate]
≥ 80%: pest or weed control at 1200 g/ha [1] | inhibition at 1200 g/ha (Echinochloa crus-galli [2]) | inhibition at 1200 g/ha (Digitaria ciliaris [3]) | inhibition at 1200 g/ha (Digitaria ciliaris [4]) | inhibition at 1200 g/ha [5] | inhibition at 1200 g/ha (Echinochloa crus-galli [6])

CC(C)C12CC(OCc3cccc(Cl)c3)C(C)(CC1Br)O2 (stereo not drawn) [1-1359, 5-bromo-2-[(3-chlorophenyl)methoxy]-1-methyl-4-isopropyl-7-oxabicyclo[2.2.1]heptane]
≥ 80%: pest or weed control at 1200 g/ha [1] | inhibition at 1200 g/ha (Echinochloa crus-galli [2]) | inhibition at 1200 g/ha (Digitaria ciliaris [3]) | inhibition at 1200 g/ha (Digitaria ciliaris [4]) | inhibition at 1200 g/ha [5] | inhibition at 1200 g/ha (Echinochloa crus-galli [6])

Cc1ccccc1CO[C@H]1C[C@@]2(C(C)C)O[C@]1(C)C[C@H]2Br [1-1016, (1R,2S,4S,5R)-5-bromo-1-methyl-2-[(2-methylphenyl)methoxy]-4-isopropyl-7-oxabicyclo[2.2.1]heptane]
≥ 80%: pest or weed control at 1200 g/ha [1] | inhibition at 1200 g/ha (Echinochloa crus-galli [2]) | inhibition at 1200 g/ha (Digitaria ciliaris [3]) | inhibition at 1200 g/ha (Digitaria ciliaris [4]) | inhibition at 1200 g/ha [5] | inhibition at 1200 g/ha (Echinochloa crus-galli [6])

Cc1cccc(COC2CC3(C(C)C)OC2(C)CC3Br)c1 (stereo not drawn) [1-1344, 5-bromo-1-methyl-2-[(3-methylphenyl)methoxy]-4-isopropyl-7-oxabicyclo[2.2.1]heptane]
≥ 80%: pest or weed control at 1200 g/ha [1] | inhibition at 1200 g/ha (Echinochloa crus-galli [2]) | inhibition at 1200 g/ha (Digitaria ciliaris [3]) | inhibition at 1200 g/ha (Digitaria ciliaris [4]) | inhibition at 1200 g/ha [5] | inhibition at 1200 g/ha (Echinochloa crus-galli [6])

CC(C)[C@@]12C[C@H](OCc3ccccc3C#N)[C@@](C)(C[C@H]1I)O2 [1-1109, 2-[[(1R,2S,4S,5R)-5-iodo-1-methyl-4-isopropyl-7-oxabicyclo[2.2.1]heptan-2-yl]oxymethyl]benzonitrile]
≥ 80%: pest or weed control at 1200 g/ha [1] | inhibition at 1200 g/ha (Echinochloa crus-galli [2]) | inhibition at 1200 g/ha (Digitaria ciliaris [3]) | inhibition at 1200 g/ha (Digitaria ciliaris [4]) | inhibition at 1200 g/ha [5] | inhibition at 1200 g/ha (Echinochloa crus-galli [6])

CC(C)C12CC(OCc3ccc(Cl)cc3Cl)C(C)(CC1Br)O2 (stereo not drawn) [1-1385, 5-bromo-2-[(2,4-dichlorophenyl)methoxy]-1-methyl-4-isopropyl-7-oxabicyclo[2.2.1]heptane]
≥ 80%: pest or weed control at 1200 g/ha [1] | inhibition at 1200 g/ha (Echinochloa crus-galli [2]) | inhibition at 1200 g/ha (Digitaria ciliaris [3]) | inhibition at 1200 g/ha (Digitaria ciliaris [4]) | inhibition at 1200 g/ha [5] | inhibition at 1200 g/ha (Echinochloa crus-galli [6])

CC(C)[C@@]12C[C@H](OCc3ccccn3)[C@@](C)(C[C@H]1Br)O2 [1-1059, 2-[[(1R,2S,4S,5R)-5-bromo-1-methyl-4-isopropyl-7-oxabicyclo[2.2.1]heptan-2-yl]oxymethyl]pyridine]
≥ 80%: pest or weed control at 1200 g/ha [1] | inhibition at 1200 g/ha (Echinochloa crus-galli [2]) | inhibition at 1200 g/ha (Digitaria ciliaris [3]) | inhibition at 1200 g/ha (Digitaria ciliaris [4]) | inhibition at 1200 g/ha [5] | inhibition at 1200 g/ha (Echinochloa crus-galli [6])

CC(C)[C@@]12C[C@H](OCc3ccccc3)[C@@](C)(C[C@H]1Br)O2 [1-1015, (1R,2S,4S,5R)-5-bromo-1-methyl-2-phenylmethoxy-4-isopropyl-7-oxabicyclo[2.2.1]heptane]
≥ 80%: pest or weed control at 1200 g/ha [1] | inhibition at 1200 g/ha (Echinochloa crus-galli [2]) | inhibition at 1200 g/ha (Digitaria ciliaris [3]) | inhibition at 1200 g/ha (Digitaria ciliaris [4]) | inhibition at 1200 g/ha [5] | inhibition at 1200 g/ha (Echinochloa crus-galli [6])
